What was measured:
[1] = molecular target: T1, EGFR (Homo sapiens, UniProt P00533); test: EGFR ELISA assay (in vitro kinase activity, EGFR captured from A431 cell lysate); type: biochemical; design: concentration or dose not given beside the values
T1 construct: Add 7 ug A431 cell lysate per well (EGFR source); endogenous in cells; host or cells: A431
How it was run: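 EGFR from A431 lysate was captured on anti-EGFR antibody-coated plates and preincubated with compounds for 30 min. Autophosphorylation ran 5 min with 3 uM ATP and 5 mM MnCl2 (final), stopped with 20 mM EDTA. Phosphotyrosine was detected by anti-pTyr ELISA with ABTS/H2O2, read at 410 nm.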

[2] = test system: MET; test: MET biochemical kinase assay; design: species or system human; concentration or dose not given beside the values
How it was run: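 In this format, tyrosine phosphorylation of plate-captured human MET is followed in vitro after compound addition in ATP/divalent-cation buffer, detected by anti-phosphotyrosine-HRP with TMB substrate.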

T1 sequence (P00533 25-1210): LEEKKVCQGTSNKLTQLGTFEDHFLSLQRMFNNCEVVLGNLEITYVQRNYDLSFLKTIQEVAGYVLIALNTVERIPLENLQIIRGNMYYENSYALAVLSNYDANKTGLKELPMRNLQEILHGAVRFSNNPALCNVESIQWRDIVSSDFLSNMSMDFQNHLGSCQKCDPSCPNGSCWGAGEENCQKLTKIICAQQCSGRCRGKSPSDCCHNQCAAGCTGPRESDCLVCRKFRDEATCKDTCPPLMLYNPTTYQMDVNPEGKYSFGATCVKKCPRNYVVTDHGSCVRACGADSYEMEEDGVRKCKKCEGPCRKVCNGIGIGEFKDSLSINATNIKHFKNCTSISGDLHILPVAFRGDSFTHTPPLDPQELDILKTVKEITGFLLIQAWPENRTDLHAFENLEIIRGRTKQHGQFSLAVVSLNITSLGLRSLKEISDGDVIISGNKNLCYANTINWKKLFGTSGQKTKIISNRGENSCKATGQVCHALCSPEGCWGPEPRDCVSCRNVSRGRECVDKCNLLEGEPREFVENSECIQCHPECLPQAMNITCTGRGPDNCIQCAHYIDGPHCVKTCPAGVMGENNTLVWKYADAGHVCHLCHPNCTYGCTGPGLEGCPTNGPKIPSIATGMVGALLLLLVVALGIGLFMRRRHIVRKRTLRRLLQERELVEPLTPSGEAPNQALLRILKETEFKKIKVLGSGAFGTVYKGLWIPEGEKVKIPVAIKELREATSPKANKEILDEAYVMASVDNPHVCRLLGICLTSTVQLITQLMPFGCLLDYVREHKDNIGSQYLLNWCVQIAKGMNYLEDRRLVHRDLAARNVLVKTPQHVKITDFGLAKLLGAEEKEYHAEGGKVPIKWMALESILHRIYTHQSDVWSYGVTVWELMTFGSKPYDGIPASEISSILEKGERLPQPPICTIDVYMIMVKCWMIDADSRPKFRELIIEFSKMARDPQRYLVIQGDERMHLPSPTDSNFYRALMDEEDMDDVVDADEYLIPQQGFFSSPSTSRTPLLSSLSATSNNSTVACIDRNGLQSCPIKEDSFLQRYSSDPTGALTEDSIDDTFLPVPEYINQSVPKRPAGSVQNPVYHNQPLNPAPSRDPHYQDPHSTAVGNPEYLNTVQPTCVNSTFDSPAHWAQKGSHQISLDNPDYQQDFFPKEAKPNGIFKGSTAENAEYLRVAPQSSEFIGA

| SMILES | Biochem EGFR %Inhibition [1] [%] | Met Kinase % Inhibition [2] [%] |
| --- | --- | --- |
| COc1c([N+](=O)[O-])cc(C=C2C(=O)Nc3c(Br)cc(Br)cc32)cc1C(C)(C)C [10733/A03] | 33.6 | 24.9 |
| COc1c(C(C)(C)C)cc(C=C2C(=O)Nc3c(Br)cc(Br)cc32)cc1C(C)(C)C [10733/A04] | 32.8 | 24.0 |
| CC(C)(C)c1cc(C=C2C(=O)Nc3c(Br)cc(Br)cc32)cc(C(C)(C)C)c1OCc1ccccc1 [10733/A05] | 55.2 | 18.2 |
| COc1c(C)cc(C=C2C(=O)Nc3c(Br)cc(Br)cc32)cc1C [10733/A06] | 45.1 | 33.7 |
| Cc1cc(C=C2C(=O)Nc3c(Br)cc(Br)cc32)cc(C)c1OCc1ccccc1 [10733/A07] | 28.5 | 27.2 |
| COc1cc(Br)cc(C=C2C(=O)Nc3c(Br)cc(Br)cc32)c1O [10733/A08] | 19.5 | 27.2 |
| O=C1Nc2c(Br)cc(Br)cc2C1=Cc1cc(Br)ccc1O [10733/A09] | 25.9 | 22.1 |
| O=C1Nc2c(Br)cc(Br)cc2C1=Cc1cc([N+](=O)[O-])ccc1O [10733/A10] | 14.2 | 21.1 |
| COc1c(O)ccc(C=C2C(=O)Nc3c(Br)cc(Br)cc32)c1[N+](=O)[O-] [10733/A11] | 23.0 | 43.5 |
| CC(C)(C)c1cc(C=C2C(=O)Nc3ccc(I)cc32)cc(I)c1OCc1ccccc1 [10733/B02] | 31.6 | 74.6 |
| COc1c([N+](=O)[O-])cc(C=C2C(=O)Nc3ccc(I)cc32)cc1C(C)(C)C [10733/B03] | 14.4 | 62.2 |
| COc1c(C(C)(C)C)cc(C=C2C(=O)Nc3ccc(I)cc32)cc1C(C)(C)C [10733/B04] | 28.5 | 56.3 |
| CC(C)(C)c1cc(C=C2C(=O)Nc3ccc(I)cc32)cc(C(C)(C)C)c1OCc1ccccc1 [10733/B05] | 26.7 | 61.3 |
| COc1c(C)cc(C=C2C(=O)Nc3ccc(I)cc32)cc1C [10733/B06] | 43.6 | 71.4 |
| Cc1cc(C=C2C(=O)Nc3ccc(I)cc32)cc(C)c1OCc1ccccc1 [10733/B07] | 32.7 | 73.5 |
| COc1cc(Br)cc(C=C2C(=O)Nc3ccc(I)cc32)c1O [10733/B08] | 32.5 | 65.5 |
| O=C1Nc2ccc(I)cc2C1=Cc1cc(Br)ccc1O [10733/B09] | 21.1 | 64.5 |
| O=C1Nc2ccc(I)cc2C1=Cc1cc([N+](=O)[O-])ccc1O [10733/B10] | 11.8 | 65.1 |
| COc1c(O)ccc(C=C2C(=O)Nc3ccc(I)cc32)c1[N+](=O)[O-] [10733/B11] | 12.5 | 36.6 |
| Cc1c(Br)ccc2c1C(=Cc1cc(I)c(OCc3ccccc3)c(C(C)(C)C)c1)C(=O)N2 [10733/C02] | 31.6 | 71.8 |

| SMILES | Biochem EGFR %Inhibition [1] [%] | Met Kinase % Inhibition [2] [%] |
| --- | --- | --- |
| COc1c([N+](=O)[O-])cc(C=C2C(=O)Nc3ccc(Br)c(C)c32)cc1C(C)(C)C [10733/C03] | 14.4 | 29.3 |
| COc1c(C(C)(C)C)cc(C=C2C(=O)Nc3ccc(Br)c(C)c32)cc1C(C)(C)C [10733/C04] | 29.0 | 18.4 |
| Cc1c(Br)ccc2c1C(=Cc1cc(C(C)(C)C)c(OCc3ccccc3)c(C(C)(C)C)c1)C(=O)N2 [10733/C05] | 17.2 | 23.2 |
| COc1c(C)cc(C=C2C(=O)Nc3ccc(Br)c(C)c32)cc1C [10733/C06] | 22.7 | 4.1 |
| Cc1cc(C=C2C(=O)Nc3ccc(Br)c(C)c32)cc(C)c1OCc1ccccc1 [10733/C07] | 16.7 | 10.2 |
| COc1cc(Br)cc(C=C2C(=O)Nc3ccc(Br)c(C)c32)c1O [10733/C08] | 65.8 | 85.7 |
| Cc1c(Br)ccc2c1C(=Cc1cc(Br)ccc1O)C(=O)N2 [10733/C09] | 46.0 | 16.3 |
| Cc1c(Br)ccc2c1C(=Cc1cc([N+](=O)[O-])ccc1O)C(=O)N2 [10733/C10] | 36.0 | 20.5 |
| COc1c(O)ccc(C=C2C(=O)Nc3ccc(Br)c(C)c32)c1[N+](=O)[O-] [10733/C11] | 15.8 | 35.1 |
| CNS(=O)(=O)c1ccc2c(c1)C(=Cc1cc(I)c(OCc3ccccc3)c(C(C)(C)C)c1)C(=O)N2 [10733/D02] | 12.5 | 63.4 |
| CNS(=O)(=O)c1ccc2c(c1)C(=Cc1cc([N+](=O)[O-])c(OC)c(C(C)(C)C)c1)C(=O)N2 [10733/D03] | 11.2 | 32.8 |
| CNS(=O)(=O)c1ccc2c(c1)C(=Cc1cc(C(C)(C)C)c(OC)c(C(C)(C)C)c1)C(=O)N2 [10733/D04] | 19.9 | 37.7 |
| CNS(=O)(=O)c1ccc2c(c1)C(=Cc1cc(C(C)(C)C)c(OCc3ccccc3)c(C(C)(C)C)c1)C(=O)N2 [10733/D05] | 10.6 | 25.1 |
| CNS(=O)(=O)c1ccc2c(c1)C(=Cc1cc(C)c(OC)c(C)c1)C(=O)N2 [10733/D06] | 30.8 | -19.4 |
| CNS(=O)(=O)c1ccc2c(c1)C(=Cc1cc(C)c(OCc3ccccc3)c(C)c1)C(=O)N2 [10733/D07] | 37.4 | -6.8 |
| CNS(=O)(=O)c1ccc2c(c1)C(=Cc1cc(Br)cc(OC)c1O)C(=O)N2 [10733/D08] | 38.3 | 80.0 |
| CNS(=O)(=O)c1ccc2c(c1)C(=Cc1cc(Br)ccc1O)C(=O)N2 [10733/D09] | 48.3 | 38.7 |
| CNS(=O)(=O)c1ccc2c(c1)C(=Cc1cc([N+](=O)[O-])ccc1O)C(=O)N2 [10733/D10] | 46.8 | 22.8 |
| CNS(=O)(=O)c1ccc2c(c1)C(=Cc1ccc(O)c(OC)c1[N+](=O)[O-])C(=O)N2 [10733/D11] | 33.7 | 31.6 |
| CC(C)(C)c1cc(C=C2C(=O)Nc3ccc(S(=O)(=O)Nc4ccc(C(F)(F)F)cc4)cc32)cc(I)c1OCc1ccccc1 [10733/E02] | -1.3 | 60.5 |

From EP1247803A2, “Indolinone compounds suitable for modulation of protein kinases” (Sugen, Inc., priority 1996, dated 1998)
